According to ChEMBL document CHEMBL1201862, “PubChem BioAssay data set” (2004):
Activity calls are given as the source filed them.

How the values were obtained:
[1] = test system: BJ; experiment: cytotoxicity toward Ras-transformed BJeLR fibroblasts, dose response, cell-based, alamar blue fluorescence, cherrypicked samples (AID 2631); format: functional; conditions: Homo sapiens;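 note: confirmatory dose-response assay in RAS-dependent BJ fibroblasts engineered with TERT, LT and ST, with cytotoxicity read by fluorescence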
[2] = inhibitors of firefly luciferase expression or activity, dose response, H4 neuroglioma cells, luminescence (AID 1990); format: functional, cell-based
[3] = test system: BJ; experiment: cells; format: functional, cell-based; conditions: Homo sapiens
[4] = Luminescence Cell-Based Dose Retest to Confirm Inhibitors of Cancer Stem Cells. [Related pubchem assays (depositor defined):AID2717, AID2721]; format: functional; conditions: Homo sapiens
[5] = cytotoxicity toward DRD oncogenic fibroblasts, dose response, cell-based, non-viral oncogenic, luminescence (AID 1934); format: functional; conditions: Homo sapiens
[6] = Luminescence Cell-Based Dose Response HTS to Identify Inhibitors of 5'UTR Stem-Loop Driven Prion Protein mRNA Translation in H4 Neuroglioblastoma Cells. [Related pubchem assays: 1827 (Project Summary), 1813 (Primary HTS)]; format: functional
[7] = test system: BJ; experiment: cytotoxicity toward BJ-TERT fibroblasts, dose response, cell-based, RAS-independent, luminescence (AID 1933); format: functional; conditions: Homo sapiens
[8] = test system: BJ; experiment: cytotoxicity toward BJ-TERT-LT-ST fibroblasts, dose response, cell-based, RAS-independent, luminescence (AID 1935); format: functional; conditions: Homo sapiens;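 note: BJ fibroblasts immortalized with TERT plus LT and ST oncogenes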
[9] = cytotoxicity in HEK-293T cells, dose response, cytotoxicity control for TCR NF-kB inhibitor project, luminescence, T-cell screen hits (AID 489026); format: functional, cell-based;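 note: cells exposed to compound about 14 hours before the viability readout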
[10] = target: T1, Heat shock factor protein 1 (Mus musculus, UniProt P38532); experiment: inhibition of MG132-induced HSE-luciferase signal, confirmation, cell-based, NIH3T3, luminescence, dose retest (AID 2382); format: functional;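 note: NIH3T3 fibroblasts with HSF1-driven luciferase reporter stressed by proteasome inhibitor MG132; luminescence from HSF1-driven luciferase expression after 8 hours of MG132 stress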
T1 sequence (P38532 whole entry): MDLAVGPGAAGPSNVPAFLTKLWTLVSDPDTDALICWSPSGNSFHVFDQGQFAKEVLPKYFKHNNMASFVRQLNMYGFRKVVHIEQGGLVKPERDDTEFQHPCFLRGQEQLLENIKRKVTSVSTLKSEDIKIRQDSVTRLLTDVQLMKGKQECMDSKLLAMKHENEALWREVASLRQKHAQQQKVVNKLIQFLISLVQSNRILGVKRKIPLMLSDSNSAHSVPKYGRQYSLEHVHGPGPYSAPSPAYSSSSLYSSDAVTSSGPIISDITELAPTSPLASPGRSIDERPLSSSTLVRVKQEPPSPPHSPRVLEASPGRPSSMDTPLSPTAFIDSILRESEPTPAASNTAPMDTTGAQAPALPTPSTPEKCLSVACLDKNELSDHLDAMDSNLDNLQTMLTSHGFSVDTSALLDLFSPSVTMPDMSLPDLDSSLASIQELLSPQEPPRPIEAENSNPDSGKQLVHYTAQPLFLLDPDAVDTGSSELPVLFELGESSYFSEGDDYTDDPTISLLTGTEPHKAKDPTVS

[11] = PAX5 activity inhibitors, dose response, selectivity assay for PAX8 inhibitor project, cell-based, plate reader, dry powder samples (AID 743047); format: functional;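 note: HEK293 cells carrying a Pax5 driven CD19 promoter luciferase reporter; potency of inhibitors that lower reporter luminescence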
[12] = target: Paired box protein Pax-8 (Homo sapiens, UniProt Q06710); experiment: inhibitors of PAX8-driven TPO luciferase reporter, dose response, RMG-I cells, cherry-pick (AID 687027); format: functional, cell-based;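 note: luciferase reporter driven by Pax8 target thyroperoxidase promoter measured by SteadyGlo luminescence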
Paired box protein Pax-8, sequence (Q06710 whole entry): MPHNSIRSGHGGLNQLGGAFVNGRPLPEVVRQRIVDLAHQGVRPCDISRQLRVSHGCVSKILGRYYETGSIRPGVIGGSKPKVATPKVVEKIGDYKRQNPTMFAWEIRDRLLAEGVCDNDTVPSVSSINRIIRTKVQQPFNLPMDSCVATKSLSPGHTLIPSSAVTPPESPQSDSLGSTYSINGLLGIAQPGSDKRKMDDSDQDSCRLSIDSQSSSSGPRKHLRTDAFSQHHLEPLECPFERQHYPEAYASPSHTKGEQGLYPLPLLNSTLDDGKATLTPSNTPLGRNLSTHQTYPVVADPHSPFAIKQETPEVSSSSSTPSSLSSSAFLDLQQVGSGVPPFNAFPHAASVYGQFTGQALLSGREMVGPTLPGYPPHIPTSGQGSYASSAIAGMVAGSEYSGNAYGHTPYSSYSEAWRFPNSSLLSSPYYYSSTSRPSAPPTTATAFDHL

[13] = cytotoxicity dependent on PAX8, dose response, cell-based, plate reader, dry powder (AID 743049); format: functional
[14] = IGROV1 ovarian cancer cell cytotoxicity, dose response, PAX8 inhibitor project, plate reader, dry powder samples (AID 743043); format: functional, cell-based; conditions: IGROV-1
[15] = cytotoxicity in HEK-293T NF-kB-Luc cells, dose response, cytotoxicity control for B/T-cell NF-kB inhibitor project, cell-based, uHTS hits (AID 489019); format: functional;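 note: IC50 reflects cytotoxicity as loss of cell viability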
[16] = Luminescence-based counterscreen assay for KLF5 inhibitors: dose response cell-based high throughput screening assay to identify cytotoxic compounds using the IEC-6 intestinal epithelial cell line. [Related pubchem assays: 1700 (Primary screen.), 1834 (Confirmation screen.), 1858 (Summary AID.), 1905 (Counterscreen.)]; format: functional
[17] = Shn3 3'UTR reporter inhibitors, dose response, cell-based, Clone20 osteoblasts, firefly luciferase, cherry-picked (AID 624132); format: functional;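 note: firefly luciferase luminescence from reporter carrying the Shn3 3'UTR in osteoblasts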
[18] = PAX2 cell-based inhibition, dose response, selectivity assay for PAX8 inhibitor project, plate reader, dry powder samples (AID 743048); format: functional;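 note: HEK293 cells carrying a WT1 promoter luciferase reporter driven by expressed Pax2; potency is for inhibition of Pax2 driven reporter signal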
[19] = HepG2 cell cytotoxicity, dose response, cytotoxicity control for Shn3 inhibitor project, CellTiter-Glo, cherry-picked (AID 624134); format: functional, cell-based
[20] = test system: Escherichia coli; experiment: microbe, parasite or virus in culture
[21] = test system: Jurkat; experiment: antigen receptor-induced NF-kB inhibitors, dose response, Jurkat, luciferase reporter, luminescence, B- and T-cell (AID 489004); format: functional, cell-based; conditions: Homo sapiens;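 note: NF-kB luciferase reporter Jurkat cells stimulated with PMA plus ionomycin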
[22] = reduction of Shn3 3'UTR firefly luciferase signal, dose response, Schnurri-3 inhibitor project, cell-based, Clone20 osteoblasts, cherry-pick, set 2 (AID 720490); format: functional;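 note: actives lower the luminescence signal as inhibitors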
[23] = cytotoxicity in COV362 ovarian cancer cells, dose response, cytotoxicity control for PAX8 inhibitor project, cell-based, plate reader, dry powder, SA12 (AID 743144); format: functional
[24] = IOSE-T80 ovarian epithelial cell cytotoxicity, dose response, cytotoxicity control for PAX8 inhibitor project, plate reader, dry powder samples (AID 743045); format: functional, cell-based
[25] = test system: HeLa; experiment: HeLa cell cytotoxicity, dose response, cytotoxicity control, 48 h, plate reader, cherry-picks (AID 504942); format: functional, cell-based; conditions: Homo sapiens
[26] = target: Acyl-homoserine lactone acylase PvdQ (Pseudomonas aeruginosa (strain LESB58), UniProt Q9I194); experiment: P. aeruginosa PvdQ acylase inhibitors, dose response, biochemical, fluorescence, plate reader and imaging, cherry-picks (AID 493231)
Acyl-homoserine lactone acylase PvdQ, sequence (Q9I194 24-193 limits assumed): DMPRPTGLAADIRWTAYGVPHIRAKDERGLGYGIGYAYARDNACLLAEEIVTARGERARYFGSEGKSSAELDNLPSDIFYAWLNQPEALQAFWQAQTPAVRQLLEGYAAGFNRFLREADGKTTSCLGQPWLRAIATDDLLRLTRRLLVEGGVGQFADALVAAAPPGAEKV
Acyl-homoserine lactone acylase PvdQ, sequence (Q9I194 217-762 limits assumed): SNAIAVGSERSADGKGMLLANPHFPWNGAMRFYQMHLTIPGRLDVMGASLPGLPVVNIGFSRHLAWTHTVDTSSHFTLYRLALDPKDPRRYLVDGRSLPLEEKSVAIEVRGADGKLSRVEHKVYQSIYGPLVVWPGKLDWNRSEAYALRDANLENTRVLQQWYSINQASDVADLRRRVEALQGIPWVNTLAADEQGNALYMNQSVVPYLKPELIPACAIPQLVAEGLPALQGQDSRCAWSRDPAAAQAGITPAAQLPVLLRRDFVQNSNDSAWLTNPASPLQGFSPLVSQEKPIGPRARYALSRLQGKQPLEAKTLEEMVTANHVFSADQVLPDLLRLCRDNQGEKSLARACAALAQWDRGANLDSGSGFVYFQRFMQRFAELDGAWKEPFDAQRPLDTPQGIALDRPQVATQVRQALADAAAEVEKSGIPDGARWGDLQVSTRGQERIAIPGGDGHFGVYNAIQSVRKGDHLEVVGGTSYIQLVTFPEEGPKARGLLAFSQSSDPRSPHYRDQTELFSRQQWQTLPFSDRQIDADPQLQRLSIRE

[27] = target: CAAX prenyl protease 2 (Homo sapiens, UniProt Q9Y256); experiment: human Rce1 protease inhibitors, dose response, biochemical, yeast membranes, quenched-peptide fluorescence, cherry-pick (AID 588849)
CAAX prenyl protease 2 (Homo sapiens, UniProt Q9Y256), sequence (Q9Y256 whole entry): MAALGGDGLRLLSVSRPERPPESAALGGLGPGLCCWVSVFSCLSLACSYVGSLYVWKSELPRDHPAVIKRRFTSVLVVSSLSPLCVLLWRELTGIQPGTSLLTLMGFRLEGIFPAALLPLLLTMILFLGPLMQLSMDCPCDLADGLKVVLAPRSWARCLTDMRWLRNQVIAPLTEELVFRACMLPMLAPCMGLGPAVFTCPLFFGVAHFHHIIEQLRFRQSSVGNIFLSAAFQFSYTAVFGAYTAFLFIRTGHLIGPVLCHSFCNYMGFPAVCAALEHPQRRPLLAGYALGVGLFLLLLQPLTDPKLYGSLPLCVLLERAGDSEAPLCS

[28] = target: CAAX prenyl protease 2 (Saccharomyces cerevisiae S288c, UniProt Q03530); format: biochemical
CAAX prenyl protease 2 (Saccharomyces cerevisiae S288c, UniProt Q03530), sequence (Q03530 whole entry): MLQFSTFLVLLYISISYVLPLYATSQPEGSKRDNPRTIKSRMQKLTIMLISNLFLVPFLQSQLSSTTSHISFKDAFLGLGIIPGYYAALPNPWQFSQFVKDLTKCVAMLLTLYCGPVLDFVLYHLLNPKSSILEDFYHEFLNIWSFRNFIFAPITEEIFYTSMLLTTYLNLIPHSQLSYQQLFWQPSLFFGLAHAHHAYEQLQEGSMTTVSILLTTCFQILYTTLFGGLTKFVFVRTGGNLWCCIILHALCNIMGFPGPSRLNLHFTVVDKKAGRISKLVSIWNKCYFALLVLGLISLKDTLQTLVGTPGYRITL

[29] = test system: Jurkat; experiment: SAR Analysis of small molecule inhibitors of T-cell specific antigen receptor-induced NF-kB activation in a Jurkat cell line using a luminescence assay - Set 2. [Related pubchem assays (depositor defined):AID435003, AID435012, AID465]; format: functional, cell-based; conditions: Homo sapiens
[30] = Fluorescence-based cell-based high throughput dose response assay for inhibitors of the interaction of nucleotide-binding oligomerization domain containing 2 (NOD2) and the receptor-interacting serine-threonine kinase 2 (RIPK2).; format: functional; conditions: Homo sapiens
[31] = control 3'UTR Renilla luciferase suppression, dose response, counter-screen for Shn3 inhibitor project, cell-based, Clone20-Shn3RL, cherry-picked (AID 624133); format: functional
[32] = test system: HEK293; experiment: SAR Analysis of small molecule inhibitors of T-cell specific antigen receptor-induced NF-kB activation in a HEK-293T cell line using a luminescence assay - Set 2. [Related pubchem assays (depositor defined):AID435003, AID435012, AID489026]; format: functional, cell-based; conditions: Homo sapiens
[33] = inhibitors of SNCA 5'UTR-driven reporter translation, confirmation, H4 neuroglioma cells, luminescence (AID 1988); format: functional, cell-based
[34] = test system: HEK293; experiment: cytotoxicity in HEK293T NF-kB-Luc cells, SAR follow-up, cytotoxicity control for NF-kB activator project, cell-based, resazurin fluorescence (AID 493251); format: functional; conditions: Homo sapiens
[35] = target: Phospholipase D2 (Homo sapiens, UniProt O14939); experiment: PLD2 inhibitor potency in cells, dose response (AID 602147); format: functional;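 note: cellular assay in HEK293 cells overexpressing GFP-tagged PLD2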
Phospholipase D2, sequence (O14939 whole entry): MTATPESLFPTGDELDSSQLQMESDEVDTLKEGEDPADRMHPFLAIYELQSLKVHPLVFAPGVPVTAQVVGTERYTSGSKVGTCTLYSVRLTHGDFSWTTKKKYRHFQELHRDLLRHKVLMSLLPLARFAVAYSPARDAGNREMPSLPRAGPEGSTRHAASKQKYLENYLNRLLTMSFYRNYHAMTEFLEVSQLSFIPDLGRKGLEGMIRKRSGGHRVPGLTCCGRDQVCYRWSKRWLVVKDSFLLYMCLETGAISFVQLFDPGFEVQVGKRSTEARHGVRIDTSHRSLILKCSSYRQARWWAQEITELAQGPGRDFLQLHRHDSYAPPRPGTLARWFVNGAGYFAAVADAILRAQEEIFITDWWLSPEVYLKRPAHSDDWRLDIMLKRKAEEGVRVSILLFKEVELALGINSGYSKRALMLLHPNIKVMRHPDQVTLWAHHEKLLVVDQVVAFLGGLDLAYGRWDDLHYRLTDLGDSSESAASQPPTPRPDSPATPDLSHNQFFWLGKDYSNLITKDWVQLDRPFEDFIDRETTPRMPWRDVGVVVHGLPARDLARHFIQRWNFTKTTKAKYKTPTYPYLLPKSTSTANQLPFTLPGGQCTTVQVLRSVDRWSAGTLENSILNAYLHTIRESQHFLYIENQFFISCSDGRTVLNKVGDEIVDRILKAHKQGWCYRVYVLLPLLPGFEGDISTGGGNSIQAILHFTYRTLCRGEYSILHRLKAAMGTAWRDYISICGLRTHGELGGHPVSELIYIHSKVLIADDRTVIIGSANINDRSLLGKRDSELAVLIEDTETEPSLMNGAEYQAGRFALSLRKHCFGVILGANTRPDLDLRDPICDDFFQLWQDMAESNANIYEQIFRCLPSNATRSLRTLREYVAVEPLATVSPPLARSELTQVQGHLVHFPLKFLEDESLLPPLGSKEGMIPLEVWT

[36] = target: Phospholipase D1 (Homo sapiens, UniProt Q13393); experiment: PLD1 inhibitor potency in cells, dose response (AID 602151); format: functional;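 note: cellular PLD1 assay in Calu-1 cells stimulated with PMA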
Phospholipase D1, sequence (Q13393 whole entry): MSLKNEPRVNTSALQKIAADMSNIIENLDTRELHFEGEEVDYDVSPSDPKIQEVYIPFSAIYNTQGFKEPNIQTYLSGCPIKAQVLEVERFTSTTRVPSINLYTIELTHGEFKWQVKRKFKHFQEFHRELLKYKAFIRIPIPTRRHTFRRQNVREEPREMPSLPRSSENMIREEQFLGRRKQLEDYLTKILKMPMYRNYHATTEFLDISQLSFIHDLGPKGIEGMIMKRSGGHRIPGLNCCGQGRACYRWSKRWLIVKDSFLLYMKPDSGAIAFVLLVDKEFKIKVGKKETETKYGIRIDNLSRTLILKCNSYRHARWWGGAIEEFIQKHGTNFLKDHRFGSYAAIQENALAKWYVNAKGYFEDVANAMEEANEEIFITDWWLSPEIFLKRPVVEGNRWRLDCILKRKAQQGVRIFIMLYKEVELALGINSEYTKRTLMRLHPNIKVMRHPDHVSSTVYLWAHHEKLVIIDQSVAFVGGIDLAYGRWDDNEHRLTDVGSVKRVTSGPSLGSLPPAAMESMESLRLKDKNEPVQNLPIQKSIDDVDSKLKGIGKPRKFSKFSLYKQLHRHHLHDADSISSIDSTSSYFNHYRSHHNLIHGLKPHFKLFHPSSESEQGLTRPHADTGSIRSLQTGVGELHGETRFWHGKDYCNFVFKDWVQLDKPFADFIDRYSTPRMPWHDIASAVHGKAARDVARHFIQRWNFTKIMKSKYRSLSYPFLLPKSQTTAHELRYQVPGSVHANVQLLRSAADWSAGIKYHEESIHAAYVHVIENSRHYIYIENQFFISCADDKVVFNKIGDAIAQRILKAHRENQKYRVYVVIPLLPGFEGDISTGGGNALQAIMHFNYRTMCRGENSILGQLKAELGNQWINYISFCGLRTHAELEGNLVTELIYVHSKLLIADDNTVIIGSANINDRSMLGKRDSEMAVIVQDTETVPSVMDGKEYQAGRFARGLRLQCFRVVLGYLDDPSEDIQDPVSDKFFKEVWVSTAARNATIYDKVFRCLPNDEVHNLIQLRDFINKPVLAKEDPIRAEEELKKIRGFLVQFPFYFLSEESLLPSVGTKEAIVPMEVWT

In the case of O=Cc1cc2ccccc2nc1SCc1ccc(Cl)c(Cl)c1, the EC50 [1] is reported as < 0.104 µM (active), the EC50 [2] is reported as > 120 µM (not active) and the EC50 [3] is reported as 0.777 µM (active). For the same molecule, the AC50 [4] was 2.82 µM (active), the EC50 [5] was 0.567 µM (active) and the EC50 [6] was > 120 µM (not active). For the same molecule, the EC50 [7] was 0.279 µM (active), the EC50 [8] was 0.396 µM (inconclusive) and the IC50 [9] was > 80 µM (inactive).
For O=C(NCCc1ccccc1)c1ccc2c(c1)OCCCO2, the EC50 [10] was < 0.16 µM (active), the AC50 [11] was 2.29 µM (active) and the AC50 [12] was 2.38 µM (active). For the same molecule, the AC50 [13] was 58.7 µM (active), the AC50 [14] was 40.3 µM (active) and the IC50 [15] was > 80 µM (inactive). For the same molecule, the IC50 [16] was > 39.8 µM (not active), the AC50 [17] was 1.05 µM (active) and the AC50 [18] was 2 µM (active). The AC50 [19] was > 70 µM (inactive), the AC50 [20] was 34.1 µM (active) and the IC50 [21] was 0.64 µM (active). For the same molecule, the AC50 [22] was 3.96 µM (active), the AC50 [23] was 84.9 µM (active) and the AC50 [24] was 14.2 µM (active).
With COC(=O)c1ccc(/C=C(\C#N)c2ccccn2)cc1 the AC50 [25] was 103 µM (active) and the AC50 [26] was 2.61 µM (active).
For O=C(c1cc(-c2ccccc2)nc2ccccc12)N1CCN(c2ccccn2)CC1, the AC50 [27] was 17 µM (active) and the AC50 [28] was 4.89 µM (active).
In the case of CC(=O)N1CCN(c2ccc(NC(=O)c3ccc([N+](=O)[O-])o3)cc2Cl)CC1, the IC50 [29] is reported as 27.3 µM (inactive), the IC50 [30] is reported as 49.8 µM (inactive) and the AC50 [12] is reported as 5.83 µM (active). For the same molecule, the EC50 [2] was 11.1 µM (active), the AC50 [31] was 11.2 µM (active) and the IC50 [32] was 22 µM (inactive). The AC50 [17] was 1.08 µM (active), the EC50 [33] was 9.29 µM (active) and the IC50 [34] was 55.3 µM (inactive). For the same molecule, the AC50 [19] was 48.1 µM (active) and the EC50 [6] was 8.31 µM (active).
With O=C(NCCN1CCC2(CC1)C(=O)Oc1ccccc12)c1cnc2ccccc2c1 the IC50 [35] was 20 µM (active) and the IC50 [36] was 20 µM (inactive).
